smiles,measurement,setting,value
"CC(C)NC(=O)COc1cccc(-c2nc(Nc3ccc4[nH]ncc4c3)c3ccccc3n2)c1 [Belumosudil, 2-{3-[4-(1H-indazol-5-ylamino)-2-quinazolinyl]phenoxy}-N-(propan-2-yl) acetamide]",Weight decreased: Affected/At Risk (%),Cohort 1 200 mg QD,(5.88%)
same,Weight increased: # Events,Cohort 1 200 mg QD,9
same,Weight increased: Affected/At Risk,Cohort 1 200 mg QD,3/17
same,Weight increased: Affected/At Risk (%),Cohort 1 200 mg QD,(17.65%)
same,White blood cell count decreased: # Events,Cohort 1 200 mg QD,1
same,White blood cell count decreased: Affected/At Risk,Cohort 1 200 mg QD,1/17
same,White blood cell count decreased: Affected/At Risk (%),Cohort 1 200 mg QD,(5.88%)
same,"ALT/AST increased all grade, No.",Cohort 1 200 mg QD n=17,11
same,"ALT/AST increased grade ≥3, No.",Cohort 1 200 mg QD n=17,2
same,"Anemia grade ≥3, No.",Cohort 1 200 mg QD n=17,2
same,"Any AE, No. of patients",Cohort 1 200 mg QD n=17,17
same,"Cough all grade, No.",Cohort 1 200 mg QD n=17,1
same,"Death, No.",Cohort 1 200 mg QD n=17,0
same,"Diarrhea all grade, No.",Cohort 1 200 mg QD n=17,6
same,"Drug-related AE, No.",Cohort 1 200 mg QD n=17,8
same,"Drug-related SAE, No.",Cohort 1 200 mg QD n=17,0
same,"Dyspnea all grade, No.",Cohort 1 200 mg QD n=17,3
same,"Dyspnea grade ≥3, No.",Cohort 1 200 mg QD n=17,1
same,"Fatigue all grade, No.",Cohort 1 200 mg QD n=17,6
same,"Grade ≥3 AE, No.",Cohort 1 200 mg QD n=17,9
same,"Headache all grade, No.",Cohort 1 200 mg QD n=17,4
same,"Hyperglycemia grade ≥3, No.",Cohort 1 200 mg QD n=17,2
same,"Hypertension all grade, No.",Cohort 1 200 mg QD n=17,5
same,"Hypoxia grade ≥3, No.",Cohort 1 200 mg QD n=17,1
same,"Lung infection or pneumonia grade ≥3, No.",Cohort 1 200 mg QD n=17,1
same,"Nausea all grade, No.",Cohort 1 200 mg QD n=17,6
same,"Peripheral edema all grade, No.",Cohort 1 200 mg QD n=17,3
same,"SAE, No.",Cohort 1 200 mg QD n=17,5
same,"URI all grade, No.",Cohort 1 200 mg QD n=17,9
same,Patients with relative dose intensity >95%,Cohort 2,63%
same,Abdominal distension: # Events,Cohort 2 200 mg BID,0
same,Abdominal distension: Affected/At Risk,Cohort 2 200 mg BID,0/16
same,Abdominal distension: Affected/At Risk (%),Cohort 2 200 mg BID,(0%)
same,Abdominal pain upper: # Events,Cohort 2 200 mg BID,1
same,Abdominal pain upper: Affected/At Risk,Cohort 2 200 mg BID,1/16
same,Abdominal pain upper: Affected/At Risk (%),Cohort 2 200 mg BID,(6.25%)
same,Abdominal pain: # Events,Cohort 2 200 mg BID,4
same,Abdominal pain: Affected/At Risk,Cohort 2 200 mg BID,2/16
same,Abdominal pain: Affected/At Risk (%),Cohort 2 200 mg BID,(12.5%)
same,Actinic keratosis: # Events,Cohort 2 200 mg BID,1
same,Actinic keratosis: Affected/At Risk,Cohort 2 200 mg BID,1/16
same,Actinic keratosis: Affected/At Risk (%),Cohort 2 200 mg BID,(6.25%)
same,Acute kidney injury: # Events,Cohort 2 200 mg BID,2
same,Acute kidney injury: Affected/At Risk,Cohort 2 200 mg BID,2/16
same,Acute kidney injury: Affected/At Risk (%),Cohort 2 200 mg BID,(12.5%)
same,Acute respiratory distress syndrome: # Events,Cohort 2 200 mg BID,0
same,Acute respiratory distress syndrome: Affected/At Risk,Cohort 2 200 mg BID,0/16
same,Acute respiratory distress syndrome: Affected/At Risk (%),Cohort 2 200 mg BID,(0%)
same,Adrenal insufficiency: # Events,Cohort 2 200 mg BID,0
same,Adrenal insufficiency: Affected/At Risk,Cohort 2 200 mg BID,0/16
same,Adrenal insufficiency: Affected/At Risk (%),Cohort 2 200 mg BID,(0%)
same,Alanine aminotransferase increased: # Events,Cohort 2 200 mg BID,4
same,Alanine aminotransferase increased: Affected/At Risk,Cohort 2 200 mg BID,3/16
same,Alanine aminotransferase increased: Affected/At Risk (%),Cohort 2 200 mg BID,(18.75%)
same,Anaemia: # Events,Cohort 2 200 mg BID,8
same,Anaemia: Affected/At Risk,Cohort 2 200 mg BID,4/16
same,Anaemia: Affected/At Risk (%),Cohort 2 200 mg BID,(25%)
same,Anal incontinence: # Events,Cohort 2 200 mg BID,0
same,Anal incontinence: Affected/At Risk,Cohort 2 200 mg BID,0/16
same,Anal incontinence: Affected/At Risk (%),Cohort 2 200 mg BID,(0%)
same,Anxiety: # Events,Cohort 2 200 mg BID,3
same,Anxiety: Affected/At Risk,Cohort 2 200 mg BID,2/16
same,Anxiety: Affected/At Risk (%),Cohort 2 200 mg BID,(12.5%)
same,Arthralgia: # Events,Cohort 2 200 mg BID,1
same,Arthralgia: Affected/At Risk,Cohort 2 200 mg BID,1/16
same,Arthralgia: Affected/At Risk (%),Cohort 2 200 mg BID,(6.25%)
same,Aspartate aminotransferase increased: # Events,Cohort 2 200 mg BID,2
same,Aspartate aminotransferase increased: Affected/At Risk,Cohort 2 200 mg BID,2/16
same,Aspartate aminotransferase increased: Affected/At Risk (%),Cohort 2 200 mg BID,(12.5%)
same,Asthenia: # Events,Cohort 2 200 mg BID,1
same,Asthenia: Affected/At Risk,Cohort 2 200 mg BID,1/16
same,Asthenia: Affected/At Risk (%),Cohort 2 200 mg BID,(6.25%)
same,Atelectasis: # Events,Cohort 2 200 mg BID,0
same,Atelectasis: Affected/At Risk,Cohort 2 200 mg BID,0/16
same,Atelectasis: Affected/At Risk (%),Cohort 2 200 mg BID,(0%)
same,Back pain: # Events,Cohort 2 200 mg BID,2
same,Back pain: Affected/At Risk,Cohort 2 200 mg BID,2/16
same,Back pain: Affected/At Risk (%),Cohort 2 200 mg BID,(12.5%)
same,Balance disorder: # Events,Cohort 2 200 mg BID,1
same,Balance disorder: Affected/At Risk,Cohort 2 200 mg BID,1/16
same,Balance disorder: Affected/At Risk (%),Cohort 2 200 mg BID,(6.25%)
same,Basal cell carcinoma: # Events,Cohort 2 200 mg BID,1
same,Basal cell carcinoma: Affected/At Risk,Cohort 2 200 mg BID,1/16
same,Basal cell carcinoma: Affected/At Risk (%),Cohort 2 200 mg BID,(6.25%)
same,Benign prostatic hyperplasia: # Events,Cohort 2 200 mg BID,0
same,Benign prostatic hyperplasia: Affected/At Risk,Cohort 2 200 mg BID,0/16
same,Benign prostatic hyperplasia: Affected/At Risk (%),Cohort 2 200 mg BID,(0%)
same,Blepharitis: # Events,Cohort 2 200 mg BID,0
same,Blepharitis: Affected/At Risk,Cohort 2 200 mg BID,0/16
same,Blepharitis: Affected/At Risk (%),Cohort 2 200 mg BID,(0%)
same,Blister: # Events,Cohort 2 200 mg BID,3
same,Blister: Affected/At Risk,Cohort 2 200 mg BID,2/16
same,Blister: Affected/At Risk (%),Cohort 2 200 mg BID,(12.5%)
same,Blood alkaline phosphatase increased: # Events,Cohort 2 200 mg BID,1
same,Blood alkaline phosphatase increased: Affected/At Risk,Cohort 2 200 mg BID,1/16
same,Blood alkaline phosphatase increased: Affected/At Risk (%),Cohort 2 200 mg BID,(6.25%)
same,Blood chloride decreased: # Events,Cohort 2 200 mg BID,1
same,Blood chloride decreased: Affected/At Risk,Cohort 2 200 mg BID,1/16
same,Blood chloride decreased: Affected/At Risk (%),Cohort 2 200 mg BID,(6.25%)
same,Blood cholesterol increased: # Events,Cohort 2 200 mg BID,0
same,Blood cholesterol increased: Affected/At Risk,Cohort 2 200 mg BID,0/16
same,Blood cholesterol increased: Affected/At Risk (%),Cohort 2 200 mg BID,(0%)
same,Blood creatine increased: # Events,Cohort 2 200 mg BID,1
same,Blood creatine increased: Affected/At Risk,Cohort 2 200 mg BID,1/16
same,Blood creatine increased: Affected/At Risk (%),Cohort 2 200 mg BID,(6.25%)
same,Blood creatine phosphokinase increased: # Events,Cohort 2 200 mg BID,0
same,Blood creatine phosphokinase increased: Affected/At Risk,Cohort 2 200 mg BID,0/16
same,Blood creatine phosphokinase increased: Affected/At Risk (%),Cohort 2 200 mg BID,(0%)
same,Blood creatinine increased: # Events,Cohort 2 200 mg BID,1
same,Blood creatinine increased: Affected/At Risk,Cohort 2 200 mg BID,1/16
same,Blood creatinine increased: Affected/At Risk (%),Cohort 2 200 mg BID,(6.25%)
same,Blood loss anaemia: # Events,Cohort 2 200 mg BID,0
same,Blood loss anaemia: Affected/At Risk,Cohort 2 200 mg BID,0/16
same,Blood loss anaemia: Affected/At Risk (%),Cohort 2 200 mg BID,(0%)
same,Bronchial secretion retention: # Events,Cohort 2 200 mg BID,1
same,Bronchial secretion retention: Affected/At Risk,Cohort 2 200 mg BID,1/16
same,Bronchial secretion retention: Affected/At Risk (%),Cohort 2 200 mg BID,(6.25%)
same,Bronchitis: # Events,Cohort 2 200 mg BID,0
same,Bronchitis: Affected/At Risk,Cohort 2 200 mg BID,0/16
same,Bronchitis: Affected/At Risk (%),Cohort 2 200 mg BID,(0%)
same,Bronchoscopy: # Events,Cohort 2 200 mg BID,0
same,Bronchoscopy: Affected/At Risk,Cohort 2 200 mg BID,0/16
same,Bronchoscopy: Affected/At Risk (%),Cohort 2 200 mg BID,(0%)
same,Catheter site haemorrhage: # Events,Cohort 2 200 mg BID,0
same,Catheter site haemorrhage: Affected/At Risk,Cohort 2 200 mg BID,0/16
same,Catheter site haemorrhage: Affected/At Risk (%),Cohort 2 200 mg BID,(0%)
same,Chills: # Events,Cohort 2 200 mg BID,1
same,Chills: Affected/At Risk,Cohort 2 200 mg BID,1/16
same,Chills: Affected/At Risk (%),Cohort 2 200 mg BID,(6.25%)
same,Chronic kidney disease: # Events,Cohort 2 200 mg BID,0
same,Chronic kidney disease: Affected/At Risk,Cohort 2 200 mg BID,0/16
same,Chronic kidney disease: Affected/At Risk (%),Cohort 2 200 mg BID,(0%)
same,Conjunctival haemorrhage: # Events,Cohort 2 200 mg BID,1
same,Conjunctival haemorrhage: Affected/At Risk,Cohort 2 200 mg BID,1/16
same,Conjunctival haemorrhage: Affected/At Risk (%),Cohort 2 200 mg BID,(6.25%)
same,Conjunctivitis: # Events,Cohort 2 200 mg BID,1
same,Conjunctivitis: Affected/At Risk,Cohort 2 200 mg BID,1/16
